Results from ChEMBL document CHEMBL3885861, “Open TG-GATES”.

Species: Rattus norvegicus
Test: Open TG-GATES - Regimen: Daily Repeat
Assay type: toxicity, organism-based, Sprague-Dawley
Design: regimen Daily Repeat, gender Male, age 6 weeks
Settings: in vivo, po, 500 mg/kg, route gavage, dose level High; for APTT / Bas / Eos / Fbg / Hb / Ht / Lym / MCH / MCHC / MCV / Mono / Neu / PT / Plat / RBC / Ret / WBC: tissue Blood; for KIDNEY_L / KIDNEY_R / KIDNEY_TOTAL: tissue Kidney; for LIVER: tissue Liver; for A/G / ALP / ALT / AST / BUN / CRE / Ca / Cl / DBIL / GLC / IP / K / LDH / Na / PL / RALB / TBIL / TC / TG / TP / gamma-GTP: tissue Plasma

Compound: CC(=O)Oc1cc(C(C)C)c(OCCN(C)C)cc1C [MOXISYLYTE]
- TERMINAL_BW (72 h, time 3 day): 224 g
- APTT (72 h, time 3 day): 20.8 s
- Bas (72 h, time 3 day): 0%
- Eos (72 h, time 3 day): 1%
- Fbg (72 h, time 3 day): 325 mg/dL
- Hb (72 h, time 3 day): 14.2 g/dL
- Ht (72 h, time 3 day): 40.8%
- Lym (72 h, time 3 day): 76%
- MCH (72 h, time 3 day): 21.2 pg
- MCHC (72 h, time 3 day): 34.8%
- MCV (72 h, time 3 day): 61 fL
- Mono (72 h, time 3 day): 2.8%
- Neu (72 h, time 3 day): 20%
- PT (72 h, time 3 day): 15.7 s
- Plat (72 h, time 3 day): 118.1 x10_4/uL
- RBC (72 h, time 3 day): 669.4 x10_4/ul
- Ret (72 h, time 3 day): 6.3%
- WBC (72 h, time 3 day): 95.6 x10_2/uL
- KIDNEY_L (72 h, time 3 day): 1 g
- KIDNEY_R (72 h, time 3 day): 1 g
- KIDNEY_TOTAL (72 h, time 3 day): 2 g
- LIVER (72 h, time 3 day): 10.7 g
- A/G (72 h, time 3 day): 1.3
- ALP (72 h, time 3 day): 1492.8 IU/L
- ALT (72 h, time 3 day): 46.6 IU/L
- AST (72 h, time 3 day): 77.6 IU/L
- BUN (72 h, time 3 day): 17.6 mg/dL
- CRE (72 h, time 3 day): 0.2 mg/dL
- Ca (72 h, time 3 day): 10.9 mg/dL
- Cl (72 h, time 3 day): 106.4 meq/L
- DBIL (72 h, time 3 day): 0.004 mg/dL
- GLC (72 h, time 3 day): 176.4 mg/dL
- IP (72 h, time 3 day): 7.6 mg/dL
- K (72 h, time 3 day): 4.4 meq/L
- LDH (72 h, time 3 day): 244.2 IU/L
- Na (72 h, time 3 day): 142.6 meq/L
- PL (72 h, time 3 day): 177.6 mg/dL
- RALB (72 h, time 3 day): 3.2 g/dL
- TBIL (72 h, time 3 day): 0.012 mg/dL
- TC (72 h, time 3 day): 92.2 mg/dL
- TG (72 h, time 3 day): 118.6 mg/dL
- TP (72 h, time 3 day): 5.8 g/dL
- gamma-GTP (72 h, time 3 day): 1.2 IU/L
- TERMINAL_BW ([…], time 7 day): 243.1 g
- TERMINAL_BW ([…], time 14 day): 311.5 g
- TERMINAL_BW ([…], time 28 day): 377.7 g
- APTT ([…], time 7 day): 21.5 s
- Bas ([…], time 7 day): 0%
- Eos ([…], time 7 day): 0.8%
- Fbg ([…], time 7 day): 317.8 mg/dL
- Hb ([…], time 7 day): 13.6 g/dL
- Ht ([…], time 7 day): 38.5%
- Lym ([…], time 7 day): 76.6%
- MCH ([…], time 7 day): 21 pg
- MCHC ([…], time 7 day): 35.3%
- MCV ([…], time 7 day): 59.4 fL
- Mono ([…], time 7 day): 2.4%
- Neu ([…], time 7 day): 19.6%
- PT ([…], time 7 day): 15.4 s
- Plat ([…], time 7 day): 118.7 x10_4/uL
- RBC ([…], time 7 day): 649.6 x10_4/ul
- Ret ([…], time 7 day): 4.8%
- WBC ([…], time 7 day): 113.3 x10_2/uL
- APTT ([…], time 14 day): 22.2 s
- Bas ([…], time 14 day): 0%
- Eos ([…], time 14 day): 1%
- Fbg ([…], time 14 day): 314.8 mg/dL
- Hb ([…], time 14 day): 14.6 g/dL
- Ht ([…], time 14 day): 39.8%
- Lym ([…], time 14 day): 74.4%
- MCH ([…], time 14 day): 21.2 pg
- MCHC ([…], time 14 day): 36.7%
- MCV ([…], time 14 day): 57.9 fL
- Mono ([…], time 14 day): 2.2%
- Neu ([…], time 14 day): 21.6%
- PT ([…], time 14 day): 15.8 s
- Plat ([…], time 14 day): 122.7 x10_4/uL
- RBC ([…], time 14 day): 688.2 x10_4/ul
- Ret ([…], time 14 day): 5%
- WBC ([…], time 14 day): 116.2 x10_2/uL
- APTT ([…], time 28 day): 21.9 s
- Bas ([…], time 28 day): 0%
- Eos ([…], time 28 day): 1.2%
- Fbg ([…], time 28 day): 311 mg/dL
- Hb ([…], time 28 day): 15 g/dL
- Ht ([…], time 28 day): 42.8%
- Lym ([…], time 28 day): 79.2%
- MCH ([…], time 28 day): 18.7 pg
- MCHC ([…], time 28 day): 35.1%
- MCV ([…], time 28 day): 53.3 fL
- Mono ([…], time 28 day): 1.6%
- Neu ([…], time 28 day): 17.4%
- PT ([…], time 28 day): 15.3 s
- Plat ([…], time 28 day): 105.2 x10_4/uL
- RBC ([…], time 28 day): 802.6 x10_4/ul
- Ret ([…], time 28 day): 2.9%
- WBC ([…], time 28 day): 118.3 x10_2/uL
- KIDNEY_L ([…], time 7 day): 1.1 g
- KIDNEY_R ([…], time 7 day): 1.1 g
- KIDNEY_TOTAL ([…], time 7 day): 2.1 g
- KIDNEY_L ([…], time 14 day): 1.2 g
- KIDNEY_R ([…], time 14 day): 1.3 g
- KIDNEY_TOTAL ([…], time 14 day): 2.5 g
- KIDNEY_L ([…], time 28 day): 1.4 g
- KIDNEY_R ([…], time 28 day): 1.4 g
- KIDNEY_TOTAL ([…], time 28 day): 2.8 g
- LIVER ([…], time 7 day): 11.2 g
- LIVER ([…], time 14 day): 14.8 g
- LIVER ([…], time 28 day): 15.5 g
- A/G ([…], time 7 day): 1.3
- ALP ([…], time 7 day): 1348.8 IU/L
- ALT ([…], time 7 day): 46.2 IU/L
- AST ([…], time 7 day): 74.8 IU/L
- BUN ([…], time 7 day): 19 mg/dL
- CRE ([…], time 7 day): 0.2 mg/dL
- Ca ([…], time 7 day): 10.6 mg/dL
- Cl ([…], time 7 day): 105.8 meq/L
- DBIL ([…], time 7 day): 0 mg/dL
- GLC ([…], time 7 day): 168.8 mg/dL
- IP ([…], time 7 day): 6.7 mg/dL
- K ([…], time 7 day): 4.1 meq/L
- LDH ([…], time 7 day): 205.6 IU/L
- Na ([…], time 7 day): 141.6 meq/L
- PL ([…], time 7 day): 169.8 mg/dL
- RALB ([…], time 7 day): 3.1 g/dL
- TBIL ([…], time 7 day): 0.012 mg/dL
- TC ([…], time 7 day): 86.4 mg/dL
- TG ([…], time 7 day): 120.8 mg/dL
- TP ([…], time 7 day): 5.5 g/dL
- gamma-GTP ([…], time 7 day): 1.4 IU/L
- A/G ([…], time 14 day): 1.2
- ALP ([…], time 14 day): 1394 IU/L
- ALT ([…], time 14 day): 43.6 IU/L
- AST ([…], time 14 day): 69.2 IU/L
- BUN ([…], time 14 day): 17.4 mg/dL
- CRE ([…], time 14 day): 0.2 mg/dL
- Ca ([…], time 14 day): 10.6 mg/dL
- Cl ([…], time 14 day): 104.6 meq/L
- DBIL ([…], time 14 day): 0 mg/dL
- GLC ([…], time 14 day): 179.4 mg/dL
- IP ([…], time 14 day): 6.7 mg/dL
- K ([…], time 14 day): 3.7 meq/L
- LDH ([…], time 14 day): 123.6 IU/L
- Na ([…], time 14 day): 141.4 meq/L
- PL ([…], time 14 day): 171 mg/dL
- RALB ([…], time 14 day): 3.2 g/dL
- TBIL ([…], time 14 day): 0.006 mg/dL
- TC ([…], time 14 day): 83.2 mg/dL
- TG ([…], time 14 day): 190 mg/dL
- TP ([…], time 14 day): 5.8 g/dL
- gamma-GTP ([…], time 14 day): 1 IU/L
- A/G ([…], time 28 day): 1.1
- ALP ([…], time 28 day): 1129.4 IU/L
- ALT ([…], time 28 day): 47.6 IU/L
- AST ([…], time 28 day): 69.8 IU/L
- BUN ([…], time 28 day): 17.6 mg/dL
- CRE ([…], time 28 day): 0.2 mg/dL
- Ca ([…], time 28 day): 10.7 mg/dL
- Cl ([…], time 28 day): 106 meq/L
- DBIL ([…], time 28 day): 0.004 mg/dL
- GLC ([…], time 28 day): 189 mg/dL
- IP ([…], time 28 day): 6.4 mg/dL
- K ([…], time 28 day): 4.1 meq/L
- LDH ([…], time 28 day): 151.2 IU/L
- Na ([…], time 28 day): 142.2 meq/L
- PL ([…], time 28 day): 173.6 mg/dL
- RALB ([…], time 28 day): 3.2 g/dL
- TBIL ([…], time 28 day): 0.008 mg/dL
- TC ([…], time 28 day): 87 mg/dL
- TG ([…], time 28 day): 152.2 mg/dL
- TP ([…], time 28 day): 6.2 g/dL
- gamma-GTP ([…], time 28 day): 2 IU/L
